Results taken from patent publication US11427553B2, “Dihydrooxadiazinones” (Bayer Aktiengesellschaft, priority 2017, dated 2022).

Columns and labels:
HeLa cells = assay: Assay 1 cell proliferation measurement (CTG, 72 h), HeLa; format: cell-based, human; conditions: Homo sapiens, HeLa; Assay 1, 72 h, Cell Titer Glo; read-out: HeLa IC50 [nM] (Cervical cancer)
In short: (§1)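 Cells were plated, grown overnight at 37 °C, then treated 72 h with a 10-step 2.5-fold dilution series from 100 nM maximum final (0.3% DMSO vehicle). Viability was read by CellTiter-Glo luminescence. IC50 from a 4-parameter fit, normalised to a 0 h plate (maximum inhibition) and DMSO control (minimum inhibition).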

SK-MEL-3 cells = assay: Assay 1 cell proliferation measurement (CTG, 72 h), SK-MEL-3; format: cell-based, human; conditions: Homo sapiens, SK-MEL3; Assay 1, 72 h, Cell Titer Glo; read-out: SK-MEL-3 IC50 [nM] (melanoma)
In short: as §1

IGR37 cells = assay: Assay 1 cell proliferation measurement (CTG, 72 h), IGR37; format: cell-based; conditions: Homo sapiens, IGR-37, Cell Titer Glo, read-out: IGR37 IC50 [nM] (melanoma)
Hs 578T cells = assay: Assay 1 cell proliferation measurement, Hs 578T; format: cell-based; conditions: Homo sapiens, Breast, read-out: Anti-proliferation IC50 [nM] Hs 578T
HEL 92.1.7 cells = assay: Assay 1 cell proliferation measurement, HEL 92.1.7; format: cell-based; conditions: Homo sapiens, Erythroleukemia, read-out: Anti-proliferation IC50 [nM] HEL 92.1.7
DK-MG cells = assay: Assay 1 cell proliferation measurement, DK-MG; format: cell-based; conditions: Homo sapiens; Glioblastoma; read-out: Anti-proliferation IC50 [nM] DK-MG
DBTRG-05-MG cells = assay: Assay 1 cell proliferation measurement, DBTRG-05-MG; format: cell-based; conditions: Homo sapiens, Glioblastoma, read-out: Anti-proliferation IC50 [nM] DBTRG-05-MG
CHL-1 cells = assay: Assay 1 cell proliferation measurement, CHL-1; format: cell-based; conditions: Homo sapiens, Melanoma, read-out: Anti-proliferation IC50 [nM] CHL-1
A-2058 cells = assay: Assay 1 cell proliferation measurement, A-2058; format: cell-based; conditions: Homo sapiens, A2058; Melanoma; read-out: Anti-proliferation IC50 [nM] A-2058
PA-1 cells = assay: Assay 1 cell proliferation measurement, PA-1; format: cell-based; conditions: Homo sapiens, Ovarian teratocarcinoma, read-out: Anti-proliferation IC50 [nM] PA-1
human full length PDE3A = human full length PDE3A (Homo sapiens (Human), UniProt Q14432); assay: Assay 4 PDE3A enzyme inhibition (3H-cAMP SPA); format: biochemical; conditions: Sf9 cell extract
In short: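 In this SPA format, the 60-min room-temperature reaction used 0.025 μCi [8-3H]cAMP and diluted full-length PDE3A from Sf9 cells. Percentage activity was plotted against log compound concentration to derive IC50.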

human full length PDE3B = human full length PDE3B (Homo sapiens (Human), UniProt Q13370); assay: Assay 5 PDE3B enzyme inhibition (3H-cAMP SPA); format: biochemical; conditions: Sf9 cell extract
In short: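 Compounds in DMSO are mixed with diluted PDE3B extract from Sf9 cells, and reactions start on adding tritiated cAMP. After 60 min at room temperature, yttrium scintillation proximity beads terminate hydrolysis and signal is counted; IC50 values come from sigmoidal dose-response curves.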

H4 cells = assay: Assay 1 cell proliferation measurement, H4; format: cell-based; conditions: Homo sapiens; Astrocytoma; read-out: Anti-proliferation IC50 [nM] H4
NCI-H1734 cells = assay: Assay 1 cell proliferation measurement, NCI-H1734; format: cell-based; conditions: Homo sapiens, Lung, read-out: Anti-proliferation IC50 [nM] NCI-H1734
[1] = Assay 6 in vitro metabolic stability in cryopreserved human hepatocytes (CL, Fmax); format: in vitro ADME; conditions: 1 μM test compound; for Clblood: hepatic in vivo blood clearance calculated (well-stirred) from half-life in cryopreserved human hepatocytes; for Fmax: maximal oral bioavailability calculated from half-life in cryopreserved human hepatocytes
Method: Assay 6 Method for Human Cryo Hepatocytes:
Investigation of In Vitro Metabolic Stability in Cryopreserved Human Hepatocytes (Including Calculation of Hepatic In Vivo Blood Clearance (CL) and Maximal Oral Bioavailability (Fmax))
Cryopreserved Hepatocytes (e.g. purchased from Celsis InVitroTechnologies) were briefly thawed, washed with 45 mL pre-warmed in in vitro GRO HT medium and centrifuged for 5 min at 50×g. The cell pellet was resuspended in 5 ml of Krebs-Henseleit […] (KHB). Cell viability was determined by trypan blue exclusion.
For the metabolic stability assay liver cells were distributed in WME containing 5% FCS to glass vials at a density of 1.0×10^6 vital cells/ml. The test compound was added to a final concentration of 1 μM. During incubation, the hepatocyte suspensions were continuously shaken at 580 rpm and aliquots were taken at 2, 8, 16, 30, 45 and 90 min, to which equal volumes of cold methanol were immediately added. Samples were frozen at −20° C. over night, after subsequently centrifuged for 15 minutes at 3000 rpm and the supernatant was analyzed with an Agilent 1290 HPLC-system with LCMS/MS detection.
The half-life of a test compound was determined from the concentration-time plot. From the half-life the intrinsic clearances were calculated. Together with the additional parameters liver blood flow, amount of liver cells in vivo and in vitro. The hepatic in vivo blood clearance (CL) and the maximal oral bioavailability (Fmax) was calculated.

IGR-1 cells = assay: Assay 1 cell proliferation measurement, IGR-1; format: cell-based; conditions: Homo sapiens, Melanoma, read-out: Anti-proliferation IC50 [nM] IGR-1
HMCB cells = assay: Assay 1 cell proliferation measurement, HMCB; format: cell-based; conditions: Homo sapiens, Melanoma, read-out: Anti-proliferation IC50 [nM] HMCB

Chain of human full length PDE3B (Q13370 whole entry): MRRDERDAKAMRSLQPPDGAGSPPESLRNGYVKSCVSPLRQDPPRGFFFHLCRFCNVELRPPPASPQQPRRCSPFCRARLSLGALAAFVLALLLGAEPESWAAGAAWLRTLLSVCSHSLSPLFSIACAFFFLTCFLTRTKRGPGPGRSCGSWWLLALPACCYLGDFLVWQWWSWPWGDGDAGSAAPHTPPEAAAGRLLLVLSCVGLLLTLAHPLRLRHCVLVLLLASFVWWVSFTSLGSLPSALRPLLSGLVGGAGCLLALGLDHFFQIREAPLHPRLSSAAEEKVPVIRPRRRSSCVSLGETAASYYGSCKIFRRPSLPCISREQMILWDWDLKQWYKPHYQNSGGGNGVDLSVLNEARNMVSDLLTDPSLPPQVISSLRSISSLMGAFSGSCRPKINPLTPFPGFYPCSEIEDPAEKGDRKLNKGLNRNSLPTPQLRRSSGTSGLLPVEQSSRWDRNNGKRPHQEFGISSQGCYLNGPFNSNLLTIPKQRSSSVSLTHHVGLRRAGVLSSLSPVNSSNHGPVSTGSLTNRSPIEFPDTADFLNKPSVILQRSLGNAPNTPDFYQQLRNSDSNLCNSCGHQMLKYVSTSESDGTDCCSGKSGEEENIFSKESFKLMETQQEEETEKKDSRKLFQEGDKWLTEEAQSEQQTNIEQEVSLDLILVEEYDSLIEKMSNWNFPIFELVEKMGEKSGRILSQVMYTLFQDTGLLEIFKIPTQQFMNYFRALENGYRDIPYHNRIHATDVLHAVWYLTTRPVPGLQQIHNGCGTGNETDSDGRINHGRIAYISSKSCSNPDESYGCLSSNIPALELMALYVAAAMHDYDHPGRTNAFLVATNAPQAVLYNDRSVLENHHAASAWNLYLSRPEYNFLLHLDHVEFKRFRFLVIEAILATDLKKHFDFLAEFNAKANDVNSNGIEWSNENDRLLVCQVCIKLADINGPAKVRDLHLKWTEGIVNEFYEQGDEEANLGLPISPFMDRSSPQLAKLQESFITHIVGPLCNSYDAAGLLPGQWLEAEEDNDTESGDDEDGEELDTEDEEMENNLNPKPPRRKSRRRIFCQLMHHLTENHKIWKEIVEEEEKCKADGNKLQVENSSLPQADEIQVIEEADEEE
Chain of human full length PDE3A (Q14432 whole entry): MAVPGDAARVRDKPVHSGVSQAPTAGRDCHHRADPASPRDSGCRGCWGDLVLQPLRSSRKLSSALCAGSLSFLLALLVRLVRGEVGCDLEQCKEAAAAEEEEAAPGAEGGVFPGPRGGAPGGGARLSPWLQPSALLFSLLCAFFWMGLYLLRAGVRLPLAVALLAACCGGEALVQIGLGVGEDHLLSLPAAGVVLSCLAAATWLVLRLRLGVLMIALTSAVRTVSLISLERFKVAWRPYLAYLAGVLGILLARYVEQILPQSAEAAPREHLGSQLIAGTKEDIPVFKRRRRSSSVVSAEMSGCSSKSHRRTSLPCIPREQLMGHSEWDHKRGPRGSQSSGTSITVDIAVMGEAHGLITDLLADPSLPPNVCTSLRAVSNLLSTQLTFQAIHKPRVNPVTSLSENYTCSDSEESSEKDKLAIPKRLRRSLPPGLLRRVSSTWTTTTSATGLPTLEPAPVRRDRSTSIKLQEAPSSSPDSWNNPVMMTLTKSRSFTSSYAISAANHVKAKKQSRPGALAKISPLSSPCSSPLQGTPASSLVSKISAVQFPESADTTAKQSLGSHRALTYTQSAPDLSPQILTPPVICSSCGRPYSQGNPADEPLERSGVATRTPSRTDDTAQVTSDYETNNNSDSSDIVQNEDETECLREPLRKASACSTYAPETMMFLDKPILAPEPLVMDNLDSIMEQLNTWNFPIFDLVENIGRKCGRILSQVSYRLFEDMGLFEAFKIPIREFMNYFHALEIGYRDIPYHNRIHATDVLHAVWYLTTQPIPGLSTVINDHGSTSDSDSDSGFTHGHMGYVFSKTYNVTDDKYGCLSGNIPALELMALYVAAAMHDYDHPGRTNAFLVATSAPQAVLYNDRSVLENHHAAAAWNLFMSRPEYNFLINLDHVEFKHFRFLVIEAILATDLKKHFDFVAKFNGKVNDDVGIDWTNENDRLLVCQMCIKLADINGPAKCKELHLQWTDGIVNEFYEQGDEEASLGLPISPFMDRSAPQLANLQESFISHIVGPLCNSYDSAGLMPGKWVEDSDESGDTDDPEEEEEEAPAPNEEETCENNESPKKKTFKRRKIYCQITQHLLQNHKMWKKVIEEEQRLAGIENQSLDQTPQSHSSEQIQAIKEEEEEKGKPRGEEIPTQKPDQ

| Structure (SMILES) | IC50 (HeLa cells) [nM] | IC50 (SK-MEL-3 cells) [nM] | IC50 (human full length PDE3A) [nM] | IC50 (human full length PDE3B) [nM] | IC50 (NCI-H1734 cells) [nM] | Clblood [1] [mL/min/kg] | Fmax [1] [%] | IC50 (IGR37 cells) [nM] | IC50 (Hs 578T cells) [nM] | IC50 (HEL 92.1.7 cells) [nM] | IC50 (DK-MG cells) [nM] | IC50 (DBTRG-05-MG cells) [nM] | IC50 (CHL-1 cells) [nM] | IC50 (A-2058 cells) [nM] | IC50 (PA-1 cells) [nM] | IC50 (H4 cells) [nM] | IC50 (IGR-1 cells) [nM] | IC50 (HMCB cells) [nM] |
| --- | --- | --- | --- | --- | --- | --- | --- | --- | --- | --- | --- | --- | --- | --- | --- | --- | --- | --- |
| Cc1ccc(C2=NNC(=O)OC2)cc1C(F)(F)F [Example 139, 5-[4-Methyl-3-(trifluoromethyl)phenyl]-3,6-dihydro-2H-1,3,4-oxadiazin-2-one] | 14 | 29 | 140 | 310 | – | – | – | 40 | > 100 | > 100 | 61 | > 100 | 58 | > 100 | > 100 | – | – | – |
| CC(C)(C)CCc1ccc(C2=NNC(=O)OC2)cc1C(F)(F)F [Example 269, 5-[4-(3,3-Dimethylbutyl)-3-(trifluoromethyl)phenyl]-3,6-dihydro-2H-1,3,4-oxadiazin-2-one] | 6 | 17 | 695 | 790 | – | 6.83 | 69 | 24 | 66 | 44 | 49 | 50 | 47 | 61 | 49 | – | – | – |
| Cc1cc(C2=NNC(=O)OC2)ccc1-c1ccc(F)c(F)c1 [Example 8, 5-(3′,4′-Difluoro-2-methylbiphenyl-4-yl)-3,6-dihydro-2H-1,3,4-oxadiazin-2-one] | 6 | 18 | 210 | 243 | 42 | – | – | 16 | – | – | – | – | – | – | – | 50 | – | – |
| O=C1NN=C(c2ccc(-c3ccc(C(F)F)cc3)c(F)c2)CO1 [Example 92, 5-[4′-(Difluoromethyl)-2-fluoro[1,1′-biphenyl]-4-yl]-3,6-dihydro-2H-1,3,4-oxadiazin-2-one] | 2 | 4 | 68 | 130 | – | – | – | 4 | 31 | 9 | 17 | 18 | 11 | 18 | 17 | – | – | – |

Second part, led by results:

| IC50 (HeLa cells) [nM] | IC50 (SK-MEL-3 cells) [nM] | IC50 (human full length PDE3A) [nM] | IC50 (human full length PDE3B) [nM] | IC50 (NCI-H1734 cells) [nM] | Clblood [1] [mL/min/kg] | Fmax [1] [%] | Structure (SMILES) | IC50 (IGR37 cells) [nM] | IC50 (Hs 578T cells) [nM] | IC50 (HEL 92.1.7 cells) [nM] | IC50 (DK-MG cells) [nM] | IC50 (DBTRG-05-MG cells) [nM] | IC50 (CHL-1 cells) [nM] | IC50 (A-2058 cells) [nM] | IC50 (PA-1 cells) [nM] | IC50 (H4 cells) [nM] | IC50 (IGR-1 cells) [nM] | IC50 (HMCB cells) [nM] |
| --- | --- | --- | --- | --- | --- | --- | --- | --- | --- | --- | --- | --- | --- | --- | --- | --- | --- | --- |
| 5 | 13 | 220 | 170 | 26 | 5.5 | 75 | Cc1cc(C2=NNC(=O)OC2)ccc1-c1ccc(F)cc1 [Example 7, 5-(4′-Fluoro-2-methylbiphenyl-4-yl)-3,6-dihydro-2H-1,3,4-oxadiazin-2-one] | – | – | – | – | – | – | – | – | 44 | – | – |
| 2 | 3 | 275 | 173 | 19 | 4 | 82 | O=C1NN=C(c2ccc(N3CCC(F)(F)CC3)c(F)c2)CO1 [Example 1, 5-[4-(4,4-Difluoropiperidin-1-yl)-3-fluorophenyl]-3,6-dihydro-2H-1,3,4-oxadiazin-2-one] | – | – | 20 | – | – | – | – | – | 30 | 89 | 19 |
| 2 | 5 | 145 | 185 | – | 4.5 | 80 | COCCCc1ccc(C2=NNC(=O)OC2)cc1C(F)(F)F [Example 267, 5-[4-(3-Methoxypropyl)-3-(trifluoromethyl)phenyl]-3,6-dihydro-2H-1,3,4-oxadiazin-2-one] | 7 | 34 | 26 | 18 | 35 | 16 | 40 | 44 | – | – | – |
| 7 | 16 | 203 | 154 | 40 | <0.17 | 100 | O=C1NN=C(c2ccc(N3CCOCC3)c(F)c2)CO1 [Example 4, 5-[3-Fluoro-4-(morpholin-4-yl)phenyl]-3,6-dihydro-2H-1,3,4-oxadiazin-2-one] | – | – | – | – | – | – | – | – | 47 | – | – |
| 0.3 | 1 | 100 | 87 | – | – | – | C[C@@H]1OC(=O)NN=C1c1ccc(N2CCN(C)CC2)c(C(F)(F)F)c1 [Example 277, (6S)-6-Methyl-5-[4-(4-methylpiperazin-1-yl)-3-(trifluoromethyl)phenyl]-3,6-dihydro-2H-1,3,4-oxadiazin-2-one] | 1 | > 100 | > 100 | > 100 | > 100 | > 100 | > 100 | > 100 | – | – | – |
